Results from patent US20220315578A1, “BRD9 BIFUNCTIONAL DEGRADERS AND THEIR METHODS OF USE” (NOVARTIS AG, priority 2019, published 2022).

Molecular target: T1, BRD9-GFP (Homo sapiens, UniProt Q9H8M2)
T1 construct: CHYSEL (2A cis-acting hydrolase element) remnant after GFP; mCherry is split off as a separate protein (C); expressed in transfected cells; host or cells: HEK293A cells (Invitrogen R70507), lentiviral transduction with pLenti6-BRD9-GFP-CHYSEL-mCherry, blasticidin selection
T1 sequence (Q9H8M2 1-597): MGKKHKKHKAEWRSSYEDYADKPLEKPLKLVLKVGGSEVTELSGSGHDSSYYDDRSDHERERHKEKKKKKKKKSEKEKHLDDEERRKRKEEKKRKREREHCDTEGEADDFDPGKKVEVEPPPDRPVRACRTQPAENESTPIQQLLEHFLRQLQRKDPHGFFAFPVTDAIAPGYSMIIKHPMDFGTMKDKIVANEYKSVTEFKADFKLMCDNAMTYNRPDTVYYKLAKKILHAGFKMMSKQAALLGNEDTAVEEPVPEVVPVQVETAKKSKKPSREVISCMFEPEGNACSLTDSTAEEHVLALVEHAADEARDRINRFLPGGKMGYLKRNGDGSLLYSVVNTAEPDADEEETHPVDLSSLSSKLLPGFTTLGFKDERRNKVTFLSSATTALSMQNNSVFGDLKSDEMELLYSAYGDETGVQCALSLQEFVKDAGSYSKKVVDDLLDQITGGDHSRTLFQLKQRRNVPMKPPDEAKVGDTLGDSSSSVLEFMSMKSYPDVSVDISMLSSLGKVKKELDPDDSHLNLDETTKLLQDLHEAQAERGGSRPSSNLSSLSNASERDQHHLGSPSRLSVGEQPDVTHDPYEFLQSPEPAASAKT
Experiment: BRD9-GFP protein abundance flow cytometry assay in HEK293A cells
Type: cell-based
Details: HEK293A-BRD9-GFP-CHYSEL-mCherry cells; for BRD9 Deg Amax %: 24 h, % protein remaining at the concentration at which maximum degradation is seen; for DC50: 24 h at 37° C., 10-point 1:3 dilution, concentration at which 50% maximal degradation was observed
Procedure, shortened: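 HEK293A cells stably express bicistronic BRD9-GFP-CHYSEL-mCherry and received 24 h treatment at 37° C with a 10-point, 3-fold dilution series from […], in 0.1% DMSO and duplicate. Median GFP/mCherry ratio of 5,000 single cells by flow cytometry, normalized to mCherry-only cells (0%) and DMSO (100%), gave DC50 and Amax (% protein remaining).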

Structure (SMILES)	BRD9 Deg Amax %	DC50
COc1cc(-c2cn(C)c(=O)c3cnccc23)c(OC)cc1OC1CCN(CC2CCN(C(=O)c3ccc(OC)c(N4CCC(=O)NC4=O)c3)CC2)CC1 [Compound A20, 1-(5-(4-((4-(2,5-Dimethoxy-4-(2-methyl-1-oxo-1,2-dihydro-2,7-naphthyridin-4-yl)phenoxy)piperidin-1-yl)methyl)piperidine-1-carbonyl)-2-methoxyphenyl)dihydropyrimidine-2,4(1H,3H)-dione]	9.75%	14 nM
CCCCn1cc(-c2cc(OC)c(CN3CCC(OC4CCN(CCn5cccc(CN6CCC(=O)NC6=O)c5=O)CC4)CC3)cc2OC)c2ccncc2c1=O [Compound D1, 1-((1-(2-(4-((1-(4-(2-butyl-1-oxo-1,2-dihydro-2,7-naphthyridin-4-yl)-2,5-dimethoxybenzyl)piperidin-4-yl)oxy)piperidin-1-yl)ethyl)-2-oxo-1,2-dihydropyridin-3-yl)methyl)dihydropyrimidine-2,4(1H,3H)-dione]	14.78%	16 nM
CCCn1cc(-c2cc(OC)c(CCN3CCC(OC4CCN(C(=O)c5ccc(Cl)c(N6CCC(=O)NC6=O)c5)CC4)CC3)c(OC)c2)cc(C)c1=O [Compound B1, 1-(2-Chloro-5-(4-((1-(2,6-dimethoxy-4-(5-methyl-6-oxo-1-propyl-1,6-dihydropyridin-3-yl)phenethyl)piperidin-4-yl)oxy)piperidine-1-carbonyl)phenyl)dihydropyrimidine-2,4(1H,3H)-dione]	11.90%	2 nM
COc1cc(-c2cn(C)c(=O)c3cnccc23)cc(OC)c1CN1CCC(OC2CCN(C(=O)c3cccc(N4CCC(=O)NC4=O)c3)CC2)CC1 [Compound A36, 1-(3-(4-((1-(2,6-Dimethoxy-4-(2-methyl-1-oxo-1,2-dihydro-2,7-naphthyridin-4-yl)benzyl)piperidin-4-yl)oxy)piperidine-1-carbonyl)phenyl)dihydropyrimidine-2,4(1H,3H)-dione]	18.42%	39 nM
Cn1cc(-c2cc(F)c(CCN3CCC(OC4CCN(CCn5cccc(CN6CCC(=O)NC6=O)c5=O)CC4)CC3)c(F)c2)c2ccncc2c1=O [Compound E27, 1-((1-(2-(4-((1-(2,6-difluoro-4-(2-methyl-1-oxo-1,2-dihydro-2,7-naphthyridin-4-yl)phenethyl)piperidin-4-yl)oxy)piperidin-1-yl)ethyl)-2-oxo-1,2-dihydropyridin-3-yl)methyl)dihydropyrimidine-2,4(1H,3H)-dione]	22.28%	33 nM
CCCn1cc(-c2ccc(CN3CC[C@@H](OC4CCN(C(=O)c5cccc(N6CCC(=O)NC6=O)c5)CC4)[C@H](F)C3)cc2)c(C)c(C)c1=O [Compound E5, 1-(3-(4-(((3R,4R)-1-(4-(4,5-dimethyl-6-oxo-1-propyl-1,6-dihydropyridin-3-yl)benzyl)-3-fluoropiperidin-4-yl)oxy)piperidine-1-carbonyl)phenyl)dihydropyrimidine-2,4(1H,3H)-dione]	14.46%	5 nM
COc1cc(-c2cn(C)c(=O)c3cnccc23)ccc1OC1CCN(CC2CCN(C(=O)c3ccc(Cl)c(N4CCC(=O)NC4=O)c3)CC2)CC1 [Compound A10, 1-(2-Chloro-5-(4-((4-(2-methoxy-4-(2-methyl-1-oxo-1,2-dihydro-2,7-naphthyridin-4-yl)phenoxy)piperidin-1-yl)methyl)piperidine-1-carbonyl)phenyl)dihydropyrimidine-2,4(1H,3H)-dione]	18.93%	2 nM
COc1cc(-c2cn(C)c(=O)c3cnccc23)cc(OC)c1CCN1CCC(OC2CCN(C(=O)COc3ccc(N4CCC(=O)NC4=O)cc3)CC2)CC1 [Compound A25, 1-(4-(2-(4-((1-(2,6-Dimethoxy-4-(2-methyl-1-oxo-1,2-dihydro-2,7-naphthyridin-4-yl)phenethyl)piperidin-4-yl)oxy)piperidin-1-yl)-2-oxoethoxy)phenyl)dihydropyrimidine-2,4(1H,3H)-dione]	18.22%	10 nM
CCCCn1cc(-c2cc(OC)c(OCC3CCN(CC4CCN(C(=O)c5ccc(Cl)c(N6CCC(=O)NC6=O)c5)CC4)CC3)c(OC)c2)c2ccncc2c1=O [Compound B8, 1-(5-(4-((4-((4-(2-butyl-1-oxo-1,2-dihydro-2,7-naphthyridin-4-yl)-2,6-dimethoxyphenoxy)methyl)piperidin-1-yl)methyl)piperidine-1-carbonyl)-2-chlorophenyl)dihydropyrimidine-2,4(1H,3H)-dione]	17.89%	3 nM
CCCn1cc(-c2cc(OC)c(CCN3CCC(OC4CCN(CCn5cccc(CN6CCC(=O)NC6=O)c5=O)CC4)CC3)c(OC)c2)c(C)c(C)c1=O [Compound E23, 1-((1-(2-(4-((1-(4-(4,5-dimethyl-6-oxo-1-propyl-1,6-dihydropyridin-3-yl)-2,6-dimethoxyphenethyl)piperidin-4-yl)oxy)piperidin-1-yl)ethyl)-2-oxo-1,2-dihydropyridin-3-yl)methyl)dihydropyrimidine-2,4(1H,3H)-dione]	14.27%	11 nM
COc1cc(-c2cn(C)c(=O)c(C)c2C)cc(OC)c1CCN1CCC(OC2CCN(C(=O)c3cccc(N4CCC(=O)NC4=O)c3)CC2)CC1 [Compound A22, 1-(3-(4-((1-(2,6-Dimethoxy-4-(1,4,5-trimethyl-6-oxo-1,6-dihydropyridin-3-yl)phenethyl)piperidin-4-yl)oxy)piperidine-1-carbonyl)phenyl)dihydropyrimidine-2,4(1H,3H)-dione]	11.18%	6 nM
COc1cc(-c2cn(C)c(=O)c3cnccc23)c(OC)cc1/C=C/C(=O)N1CCC(OC2CCN(C(=O)c3ccc(OC)c(N4CCC(=O)NC4=O)c3)CC2)CC1 [Compound A27, (E)-1-(5-(4-((1-(3-(2,5-dimethoxy-4-(2-methyl-1-oxo-1,2-dihydro-2,7-naphthyridin-4-yl)phenyl)acryloyl)piperidin-4-yl)oxy)piperidine-1-carbonyl)-2-methoxyphenyl)dihydropyrimidine-2,4(1H,3H)-dione]	12.02%	49 nM
CCCn1cc(-c2cc(OC)c(CCN3CCN(CC4CCN(C(=O)c5ccc(Cl)c(N6CCC(=O)NC6=O)c5)CC4)CC3)c(OC)c2)c(C)c(C)c1=O [Compound E48, 1-(2-chloro-5-(4-((4-(4-(4,5-dimethyl-6-oxo-1-propyl-1,6-dihydropyridin-3-yl)-2,6-dimethoxyphenethyl)piperazin-1-yl)methyl)piperidine-1-carbonyl)phenyl)dihydropyrimidine-2,4(1H,3H)-dione]	15.41%	2 nM
COc1cc(-c2cn(C)c(=O)c3cnccc23)cc(OC)c1CCN1CCC(OC2CCN(C(=O)c3cccc(N4CCC(=O)NC4=O)c3)CC2)CC1 [Compound A40, 1-(3-(4-((1-(2,6-Dimethoxy-4-(2-methyl-1-oxo-1,2-dihydro-2,7-naphthyridin-4-yl)phenethyl)piperidin-4-yl)oxy)piperidine-1-carbonyl)phenyl)dihydropyrimidine-2,4(1H,3H)-dione]	14.20%	4 nM
COc1cc(-c2cn(C)c(=O)c(C)c2C)ccc1CN1CCN(CC2CCN(C(=O)c3ccc(Cl)c(N4CCC(=O)NC4=O)c3)CC2)CC1 [Compound A14, 1-(2-Chloro-5-(4-((4-(2-methoxy-4-(1,4,5-trimethyl-6-oxo-1,6-dihydropyridin-3-yl)benzyl)piperazin-1-yl)methyl)piperidine-1-carbonyl)phenyl)dihydropyrimidine-2,4(1H,3H)-dione]	33.06%	3 nM
CCCCn1cc(-c2ccc(O[C@@H]3CCN(CC4CCN(C(=O)c5ccc(OC)c(N6CCC(=O)NC6=O)c5)CC4)C[C@H]3F)c(F)c2)c2ccncc2c1=O [Compound E29, 1-(5-(4-(((3R,4R)-4-(4-(2-butyl-1-oxo-1,2-dihydro-2,7-naphthyridin-4-yl)-2-fluorophenoxy)-3-fluoropiperidin-1-yl)methyl)piperidine-1-carbonyl)-2-methoxyphenyl)dihydropyrimidine-2,4(1H,3H)-dione]	19.48%	1 nM
CCCCn1cc(-c2cc(OC)c(CN3CC[C@@H](OC4CCN(C(=O)c5ccc(OC)c(N6CCC(=O)NC6=O)c5)CC4)[C@H](F)C3)cc2OC)c2ccncc2c1=O [Compound E36, 1-(5-(4-(((3R,4R)-1-(4-(2-butyl-1-oxo-1,2-dihydro-2,7-naphthyridin-4-yl)-2,5-dimethoxybenzyl)-3-fluoropiperidin-4-yl)oxy)piperidine-1-carbonyl)-2-methoxyphenyl)dihydropyrimidine-2,4(1H,3H)-dione]	12.80%	6 nM
